Data published in paper PMC8920630 (Evidence-based Complementary and Alternative Medicine : eCAM, 2022).
Where two headings read alike, the source gives them in different places.

How the values were obtained:
in vitro = details: PAMPA
[1] = tested on: primary porcine brain endothelial cells (PBECs); details: cited from earlier work
[2] = PAMPA-BBB, prediction of CNS permeability; details: for Prediction of CNS penetration: class from experimental Pe, limits of Di et al., 2003
[3] = design: method as in PMID 27992940; details: cited from earlier work

In the case of `C[C@H]1[C@H](C)CC[C@]2(C(=O)O)CC[C@]3(C)C(=CC[C@@H]4[C@@]5(C)C[C@@H](O)[C@H](O)[C@@](C)(CO)[C@@H]5CC[C@]43C)[C@H]12` [Asiatic acid], the Papp at 18 h (in vitro) is given as 0.3 ± 0.3 ×10⁻⁶ cm/s, the “BBB permeability in in vitro BBB model” value [1] is given as “highly BBB permeable” and the “Prediction of CNS penetration” value [2] is given as “CNS− (CNS−, low BBB permeation predicted; Pe, 10–6 cm s^−1 < 2.0)”.
For `CCn1cc(C(=O)O)c(=O)c2cc(F)c(N3CCNCC3)nc21` [Enoxacin], the “Prediction of CNS penetration” value [2] was “CNS− (CNS−, low BBB permeation predicted; Pe, 10–6 cm s^−1 < 2.0)”.
For `C[C@H]1[C@H](C)CC[C@]2(C(=O)O)CC[C@]3(C)C(=CC[C@@H]4[C@@]5(C)C[C@@H](O)[C@H](O)[C@@](C)(CO)[C@@H]5[C@H](O)C[C@]43C)[C@H]12` [Madecassic acid], the Papp (in vitro) was 0.27 ± 0.3 ×10⁻⁶ cm/s and the “Prediction of CNS penetration” value [2] was “CNS− (CNS−, low BBB permeation predicted; Pe, 10–6 cm s^−1 < 2.0)”.
For Madecassoside, the Apparent oral bioavailability [3] is given as “less than 1%”, the “BBB permeability in in vitro BBB model” value ([1]; primary porcine brain endothelial cells (PBECs)) is given as “highly BBB permeable” and the “PAMPA-BBB (Pe) Experimental permeability” value ([2]; PBS: DMSO (95 : 5), 18 h, mean ± SEM) is given as 0.26 ± 0.7 10^−6 cm s^−1. The “Prediction of CNS penetration” value [2] was “CNS− (CNS−, low BBB permeation predicted; Pe, 10–6 cm s^−1 < 2.0)”.
